System: HT-29 cells
Experiment: HT29 cells 0FBS assay in vitro: TNF-α/SMAC mimetic/zVAD-FMK induced necroptosis, CellTiter-Glo cell viability (RIP1 inhibitory activity)
Format: cell-based
Conditions: Homo sapiens, FBS free medium, TNF-α (10 ng/ml) + SMAC mimetic (6 uM) + zVAD-FMK (10 μM), 20 hours, geometric mean EC50
Excerpt: Protocol for HT29 Cells 0FBS Assay In Vitro
• Cell line: HT-29 (ATCC® HTB-38™) • Culture medium: McCOY's 5A, Gibco, Cat No. 16600-082 • FBS, Gibco, Cat No. 10099-141C • Trypsin: Gibco, Cat No. 25200-056 • DMSO: Sigma, Cat No. 67-68-5, 1L • Assay plate: Corning #3903 • Compound dilution plate: Corning #3357 • Inducers: TNFα, GenScript, Cat No. Z01001-50, • SmacM, Cat. No., HY-15989, MedChemExpress (MCE) • Z_VAD FMK, TargetMol, T6013 • Cell Titer-Glo® Luminescent Cell Viability Assay Kit: Promega, Cat No. G7573 • EnVision: PerkinElmer, 2105-0010
2. Cell Seeding of HT-29 Cells
1) HT-29 cells were checked every day to make sure they are healthy and growing as expected. They were split sub-culturing when were approximately 80% confluent.
2) First pre-warm the culture medium of McCOY's 5A medium (Gibco, Cat No. 16600-082) with 10% FBS (Gibco, Cat No. 10099-141C) in 37° C. water bath for at least 30 min.
3) Growing cells to desired level of confluency 80% in a T75 flask, aspirate the medium, and wash with warm PBS two times.
4) Add 2-3 ml fresh warm trypsin (Gibco, Cat No. 25200-056) solution. Transfer the flask to a 37° C. incubator.
5) After 5 minutes, tap the side of the flask, and examine the flask under a microscope for lifting. If necessary, return the cells to the incubator for an additional 5-10 minutes, with occasional tapping, until lifting is complete.
6) Quickly neutralize the trypsin reaction by adding 6-9 ml cell culture medium, then transfer the cells to sterile 15 ml conical tubes. Pellet the cells by centrifugation at 300×g for 7 minutes, then decant the supernatant.
7) Resuspend the cells in fresh cell culture medium. Do cell counting with hemocytometer.
8) Seed 100 μl of 5,000 cells into each well of the sterile 96-well cell culture plate (Corning 3903) and culture overnight at 37° C. with 5% CO2.
3. Compounds Titration and Treatment of HT-29 Cells
1) All batches of compounds (CPDs0 (e.g., compound 1-169) were dissolved in DMSO (Dimethyl sulfoxide) as 20 mM stock solution.
2) Take 3 ul 20 mM stock solution of CPDs to […] DMSO and mix well, continue the titration ratio of 1:3 (20 ul CPDs+40 ul DMSO), e.g., to give solutions of CPDS at 6.6 mM, 2.2 mM, etc., till the 10 points end.
3) Take out assay plates with HT-29 cells from incubator, remove all culture medium then wash 1 time with 1×PBS, and change fresh McCOY's 5A medium of FBS free with a cocktail of TNF-α (10 ng/ml), the SMAC mimetic (6 uM) and zVAD-FMK (10 μM) to stimulate the HT-29 cells to increase pRIPK1 levels and necroptosis.
4) Add 0.5 μL of the diluted compound to the corresponding 96-well assay plates.
5) Incubate the assay plates for 20 hours at 37° C. with 5% CO2.
4. Performing Cell Viability Detection of HT-29 Cells after Treated with Compounds
1) The CellTiter-Glo® Luminescent Cell Viability Assay was employed to detect the ATP levels of viable HT-29 cells.
2) Equilibrate the CellTiter-Glo® buffer and the lyophilized substrate to room temperature prior to use.
3) Resuspend the CellTiter-Glo® substrate with CellTiter-Glo® buffer, mix by gently vortexing to obtain a homogeneous solution.
4) Pipette 20 μl the enzyme/substrate mixture by multi-channel pipette into the 96-well assay plates from step 5) under the Compounds titration and treatment stage.
5) Place the plates on an orbital shaker and mix the contents for 3 minutes to induce cell lysis.
6) Then allow the plates to incubate at room temperature for 10 minutes to stabilize luminescent signal.
7) Read and record luminescence signal with EnVision.
8) The geometric mean EC50 of the compounds were calculated from 10 points response dose with duplicate. In Table 2, activity is provided as follows: +++=0.1 nM≤EC50<100 nM; ++=100 nM≤EC5 1000 nM; […].

| SMILES | EC50 |
| --- | --- |
| Cn1nccc1-c1ncc(F)c(OC2CN(C(=O)N3N=CC[C@H]3c3cc(F)cc(C#N)c3)C2)n1 [Compound 1, (S)-3-fluoro-5-(1-(3-((5-fluoro-2-(1-methyl-1H-pyrazol-5-yl)pyrimidin-4-yl)oxy)azetidine-1-carbonyl)-4,5-dihydro-1H-pyrazol-5-yl)benzonitrile] | 0.1 to 100 nM |
| Cc1nc(C2CC=NN2C(=O)N2CC(Oc3cc(-c4c(C)cnn4C)ncc3F)C2)co1 (centres unmarked) [Compound 90, (3-((2-(1,4-dimethyl-1H-pyrazol-5-yl)-5-fluoropyridin-4-yl)oxy)azetidin-1-yl)(5-(2-methyloxazol-4-yl)-4,5-dihydro-1H-pyrazol-1-yl)methanone] | 0.1 to 100 nM |
| Cc1nsc(C)c1-c1cc(OC2CN(C(=O)N3N=CC[C@H]3c3cc(F)cc(C#N)c3)C2)c(F)cn1 [Compound 31, (S)-3-(1-(3-((2-(3,5-dimethylisothiazol-4-yl)-5-fluoropyridin-4-yl)oxy)azetidine-1-carbonyl)-4,5-dihydro-1H-pyrazol-5-yl)-5-fluorobenzonitrile] | 0.1 to 100 nM |
| Cc1cnn(C)c1-c1cc(OC2CN(C(=O)N3N=CCC3c3nc(C)c(C)s3)C2)c(F)cn1 (centres unmarked) [Compound 144, (3-((2-(1,4-dimethyl-1H-pyrazol-5-yl)-5-fluoropyridin-4-yl)oxy)azetidin-1-yl)(5-(4,5-dimethylthiazol-2-yl)-4,5-dihydro-1H-pyrazol-1-yl)methanone] | 100 to 1000 nM |
| Cn1nccc1-c1csc(OC2CN(C(=O)N3N=CC[C@H]3c3cc(F)cc(F)c3)C2)n1 [Compound 147, (S)-(5-(3,5-difluorophenyl)-4,5-dihydro-1H-pyrazol-1-yl)(3-((4-(1-methyl-1H-pyrazol-5-yl)thiazol-2-yl)oxy)azetidin-1-yl)methanone] | 0.1 to 100 nM |
| Cc1cnn(C)c1-c1cc(OC2CN(C(=O)N3N=CC[C@H]3c3cncc(F)c3)C2)c(F)cn1 [Compound 30, (S)-(3-((2-(1,4-dimethyl-1H-pyrazol-5-yl)-5-fluoropyridin-4-yl)oxy)azetidin-1-yl)(5-(5-fluoropyridin-3-yl)-4,5-dihydro-1H-pyrazol-1-yl)methanone] | 0.1 to 100 nM |
| COc1ncccc1-c1ncc(F)c(OC2CN(C(=O)N3N=CC[C@H]3c3cc(F)cc(F)c3)C2)n1 [Compound 163, (S)-(5-(3,5-difluorophenyl)-4,5-dihydro-1H-pyrazol-1-yl)(3-((5-fluoro-2-(2-methoxypyridin-3-yl)pyrimidin-4-yl)oxy)azetidin-1-yl)methanone] | 0.1 to 100 nM |
| Cc1nn(-c2cc(OC3CN(C(=O)N4N=CC[C@H]4c4cccc(F)c4)C3)c(F)cn2)c(C)c1S(N)(=O)=O [Compound 114, (S)-1-(5-fluoro-4-((1-(5-(3-fluorophenyl)-4,5-dihydro-1H-pyrazole-1-carbonyl)azetidin-3-yl)oxy)pyridin-2-yl)-3,5-dimethyl-1H-pyrazole-4-sulfonamide] | 0.1 to 100 nM |
| Cc1nc(C2CC=NN2C(=O)N2CC(Oc3nc(-c4c(C)cnn4C)c(F)cc3F)C2)cs1 (centres unmarked) [Compound 122, (3-((6-(1,4-dimethyl-1H-pyrazol-5-yl)-3,5-difluoropyridin-2-yl)oxy)azetidin-1-yl)(5-(2-methylthiazol-4-yl)-4,5-dihydro-11H-pyrazol-1-yl)methanone] | 0.1 to 100 nM |
| Cn1ncc(C#N)c1-c1ncc(F)c(OC2CN(C(=O)N3N=CC[C@H]3c3cc(F)cc(C#N)c3)C2)n1 [Compound 8, (S)-5-(4-((1-(5-(3-cyano-5-fluorophenyl)-4,5-dihydro-1H-pyrazole-1-carbonyl)azetidin-3-yl)oxy)-5-fluoropyrimidin-2-yl)-1-methyl-1H-pyrazole-4-carbonitrile] | 0.1 to 100 nM |
| Cc1nn(-c2cc(OC3CN(C(=O)N4N=CC[C@@H]4c4cc(F)cc(Cl)c4)C3)c(F)cn2)c(C)c1C(N)=O [Compound 134, (R)-1-(4-((1-(5-(3-chloro-5-fluorophenyl)-4,5-dihydro-1H-pyrazole-1-carbonyl)azetidin-3-yl)oxy)-5-fluoropyridin-2-yl)-3,5-dimethyl-1H-pyrazole-4-carboxamide] | 100 to 1000 nM |
| Cc1cnn(C)c1-c1cc(OC2CN(C(=O)N3N=CCC3c3ncccc3Cl)C2)c(F)cn1 (centres unmarked) [Compound 93, (5-(3-chloropyridin-2-yl)-4,5-dihydro-1H-pyrazol-1-yl)(3-((2-(1,4-dimethyl-1H-pyrazol-5-yl)-5-fluoropyridin-4-yl)oxy)azetidin-1-yl)methanone] | 0.1 to 100 nM |
| Cc1nn(-c2cc(OC3CN(C(=O)N4N=CC[C@H]4c4cc(F)cc(F)c4F)C3)c(F)cn2)c(C)c1S(N)(=O)=O [Compound 124, (S)-1-(5-fluoro-4-((1-(5-(2,3,5-trifluorophenyl)-4,5-dihydro-1H-pyrazole-1-carbonyl)azetidin-3-yl)oxy)pyridin-2-yl)-3,5-dimethyl-1H-pyrazole-4-sulfonamide] | 0.1 to 100 nM |
| Cc1nc(C2CC=NN2C(=O)N2CC(Oc3cc(-c4ccnn4C)c(F)cc3F)C2)cs1 (centres unmarked) [Compound 132, (3-(2,4-difluoro-5-(1-methyl-1H-pyrazol-5-yl)phenoxy)azetidin-1-yl)(5-(2-methylthiazol-4-yl)-4,5-dihydro-1H-pyrazol-1-yl)methanone] | 0.1 to 100 nM |
| Cc1cc(F)cc([C@H]2CC=NN2C(=O)N2CC(Oc3cc(-n4nc(C)c(C(N)=O)c4C)ncc3F)C2)c1 [Compound 136, (R)-1-(5-fluoro-4-((1-(5-(3-fluoro-5-methylphenyl)-4,5-dihydro-1H-pyrazole-1-carbonyl)azetidin-3-yl)oxy)pyridin-2-yl)-3,5-dimethyl-1H-pyrazole-4-carboxamide] | 100 to 1000 nM |
| Cc1ncc(C2CC=NN2C(=O)N2CC(Oc3cc(-c4c(C)cnn4C)ncc3F)C2)s1 (centres unmarked) [Compound 88, (3-((2-(1,4-dimethyl-1H-pyrazol-5-yl)-5-fluoropyridin-4-yl)oxy)azetidin-1-yl)(5-(2-methylthiazol-5-yl)-4,5-dihydro-1H-pyrazol-1-yl)methanone] | 0.1 to 100 nM |
| Cn1nccc1-c1ncc(F)c(OC2CN(C(=O)N3N=CC[C@H]3c3cncc(F)c3)C2)n1 [Compound 2, (S)-(3-((5-fluoro-2-(1-methyl-1H-pyrazol-5-yl)pyrimidin-4-yl)oxy)azetidin-1-yl)(5-(5-fluoropyridin-3-yl)-4,5-dihydro-1H-pyrazol-1-yl)methanone] | 0.1 to 100 nM |
| Cc1nn(-c2cc(OC3CN(C(=O)N4N=CC[C@H]4c4cc(F)cc(Cl)c4)C3)c(F)cn2)c(C)c1C(=O)O [Compound 140, (S)-1-(4-((1-(5-(3-chloro-5-fluorophenyl)-4,5-dihydro-1H-pyrazole-1-carbonyl)azetidin-3-yl)oxy)-5-fluoropyridin-2-yl)-3,5-dimethyl-1H-pyrazole-4-carboxylic acid] | 0.1 to 100 nM |
| Cc1cc(F)cc(C2CC=NN2C(=O)N2CC(Oc3cc(-c4c(C)cnn4C)ncc3F)C2)c1 (centres unmarked) [Compound 130, (3-((2-(1,4-dimethyl-1H-pyrazol-5-yl)-5-fluoropyridin-4-yl)oxy)azetidin-1-yl)(5-(3-fluoro-5-methylphenyl)-4,5-dihydro-1H-pyrazol-1-yl)methanone] | 0.1 to 100 nM |
| COCCn1nc(C)c(-c2cc(OC3CN(C(=O)N4N=CC[C@H]4c4cc(F)cc(C#N)c4)C3)c(F)cn2)c1C [Compound 20, (S)-3-fluoro-5-(1-(3-((5-fluoro-2-(1-(2-methoxyethyl)-3,5-dimethyl-1H-pyrazol-4-yl)pyridin-4-yl)oxy)azetidine-1-carbonyl)-4,5-dihydro-1H-pyrazol-5-yl)benzonitrile] | 0.1 to 100 nM |
